# Source: article PMC12096834, “Antimicrobial peptide plectasin recombinantly produced in Escherichia coli disintegrates cell walls of gram-positive bacteria, as proven by transmission electron and atomic force microscopy” (Journal of Bacteriology, 2025)
# Where two headings read alike, the source gives them in different places.
# Key:
# Enterococcus faecalis = assay: AFM cell thickness, stiffness and roughness; format: cell-based; conditions: plectasin 4 x MIC, CASPON-plectasin same molar quantity, mean ± SD of 20 measurements; for Stiffness: AFM force spectroscopy, untreated 8.0 ± 3.7
# Protocol: (§1) All AFM measurements were performed on a Vecoo-Bruker AFM (Diamond, Chilton, UK), including imaging and force distance measurement. Before and after measurements, the triangular cantilever was cleaned with EtOH and acetone. Sensitivity and the spring constant were calibrated by the thermal tune method by making use of the equipartition theorem, preceded by continued ramping. After calibration, the spring constant was set to 0.4017 N/m for performing measurements.
# (§2) Bacterial suspensions were prepared by taking bacterial colonies out of overnight grown agar plates and resuspending them in MHB. The suspension was set to an OD625 extinction of 0.15–0.20 corresponding to a bacterial cell density of approximately 2 × 10^8 CFU/mL. Then, 3 × 1 mL of suspension was transferred into a 2-mL reaction tube and mixed with either plectasin, CASPON-plectasin, or PBS buffer to obtain volume conditions. The concentration for plectasin was 4 x MIC, and CASPON-plectasin was of the same molar quantity as plectasin. After incubation, the bacterial suspensions were washed with PBS three times, using mild centrifugation conditions for each wash cycle (3,000 g, 15 minutes) to avoid cell damage. The washed bacterial suspension was transferred to borosilicate glass slides (24 mm diameter, 0.1 mm thickness, Menzel Gläser, Braunschweig, Germany) and left to adhere to the surface (electrostatics) for 1 hour. Afterward, the slides were washed with MilliQ water and transferred to AFM.
# (§3) Bacterial images were visualized by square areas of 2 × 2 µm^2 up to 25 × 25 µm^2 with a resolution of 512 × 512 pixels. At least 15 images were taken per sample with different square dimensions for proper visualization. Surface roughness and shapes of the bacterial cell were estimated using Gwyddion software after applying a mean filter to the raw images. A total of 20 measurements were taken on cells for each parameter, providing enough values for statistical evaluation. For additional information and an illustration of the determination principle, please refer to the supplementary material (Fig. S3), which includes an example on S. aureus. By using the following equations, the surface roughness of a selected area of this flattened area was calculated from the standard deviation in the height image. The mean roughness (Ra) and the root-mean-square roughness (Rq or RMS) were used to characterize the surface of different samples:
# (§4) After the position of the bacteria was determined, force spectroscopy was performed. Measurement of the central region of bacteria was performed with an approach speed of 10 µm/s and a maximum force of 2 nN. A curve length of 1 µm and a sampling rate of 2 kHz were used. At least 20 bacteria per sample were measured. Analysis of the force distance curves was performed using the software NanoScope Analysis 1.5. For calculating the stiffness of each bacterial cell, the following question was utilized:
# (§5) where keff is the effective stiffness (received from the slope of the measured curve), ksample is the stiffness of the sample (bacterial cell), and kspring is the spring constant (0.4017 N/m). All constants have the unit N/m. Rearrangement of the formula leads to the following relation: […]
# (§6) Measurements were pooled, and properties were calculated as described above. For each parameter, 20 measurements were used to obtain appropriate statistical values. Analysis of variance (ANOVA) was performed, followed by Student’s t-test, which is a statistical procedure that compares the averages of two independent groups (plectasin/CASPON-plectasin treated vs untreated) to determine significance in the surface roughness and stiffness of bacteria. Significances are indicated in figures and reported as “ns” for P > 0.05, “*” for P ≤ 0.05, “**” for P ≤ 0.01, and “***” for P ≤ 0.001.
# Listeria monocytogenes = assay: AFM cell thickness, stiffness and roughness; format: cell-based; conditions: plectasin 4 x MIC, CASPON-plectasin same molar quantity, mean ± SD of 20 measurements; for Stiffness: AFM force spectroscopy, untreated 5.4 ± 3.1
# Protocol: as §1, §2, §3, §4, §5, §6
# Streptococcus pneumoniae = assay: AFM cell thickness, stiffness and roughness; format: cell-based; conditions: plectasin 4 x MIC, CASPON-plectasin same molar quantity, mean ± SD of 20 measurements; for Stiffness: AFM force spectroscopy, untreated 6.2 ± 2.4
# Protocol: as §1, §2, §3, §4, §5, §6
# Staphylococcus aureus = assay: AFM cell thickness, stiffness and roughness; format: cell-based; conditions: plectasin 4 x MIC, CASPON-plectasin same molar quantity, mean ± SD of 20 measurements; for Stiffness: AFM force spectroscopy, untreated 5.3 ± 2.3
# Protocol: as §1, §2, §3, §4, §5, §6
# [1] = format: physicochemical
# Protocol: IMAC elution buffer was exchanged five times against PBS (137 mM NaCl, […], 2.7 mM KCl, and pH 7.4) with nominal 3 kDa cut-off in Amicon Ultra spin vials (Merck, Darmstadt, Germany). The buffer was exchanged discontinuously until the imidazole concentration was below 10 mM. To prevent loss in the form of precipitated plectasin, the CASPON-plectasin was diluted with PBS to a final concentration of 3.2 mg/mL.
# The buffer exchanged solution was treated by digesting CASPON-plectasin, using a 1:100 (mol/mol) dilution of the CASPON enzyme per peptide at 37°C for 12 hours. To prevent caspase oxidation and to facilitate the cleavage process, dithiothreitol (DTT) was added to a final concentration of 1 mM DTT. The temperature was maintained by using an Eppendorf Thermoblock (Hamburg, Germany). The CASPON enzyme is a modification of T7AC-6H cpCasp2, which is described by Cserjan-Puschmann et al. ([28]).
# The same RP-HPLC method described by Müller et al. ([24]) was employed for CASPON-plectasin/plectasin quantification. For CASPON-plectasin and plectasin, the concentrations 1, 0.5, 0.25, 0.125, and 0.0625 g/L were utilized to construct the calibration curve.
# 1.6 CASPON®-plectasin cleavage conditions […]
# plectasin is limited to […].
# Figure S5 Cleavage experiment using CASPON®-plectasin to examine the potential cleavage of plectasin. The calculated possible plectasin was based on the used CASPON®-plectasin mass (4 g/L), assuming no losses and employing stoichiometric principles.
# The temperature and CASPONT® enzyme ratio (C. R.) were varied for the cleavage process. […]
# the highest achievable plectasin concentration was 1.6 g/L. This outcome is consistent with the findings of a previous study (Mygind et al. 2005), which postulated that the solubility maximum of plectasin is approximately 1.6 g/L. However, an increase in DTT beyond this concentration […]
# (1 picture or pasted object on this page, not shown here)
structure (smiles),measurement,setting,value
"CC[C@H](C)[C@@H]1NC(=O)[C@H](CO)NC(=O)[C@H](CCCCN)NC(=O)[C@@H]2CSSC[C@@H](C(=O)N[C@@H](Cc3ccc(O)cc3)C(=O)O)NC(=O)[C@H](CCCCN)NC(=O)[C@@H]3CSSC[C@H](NC(=O)[C@H](CCC(N)=O)NC(=O)[C@H](CCSC)NC(=O)[C@H](CC(=O)O)NC(=O)[C@H](CC(=O)O)NC(=O)[C@H](CCC(=O)O)NC(=O)[C@H](CC(=O)O)NC(=O)[C@H](Cc4c[nH]c5ccccc45)NC(=O)[C@@H]4CCCN4C(=O)CNC(=O)[C@H](CC(N)=O)NC(=O)[C@@H](NC(=O)CNC(=O)[C@H](Cc4ccccc4)NC(=O)CN)CSSC[C@H](NC(=O)[C@H](Cc4ccc(O)cc4)NC(=O)CNC(=O)CNC(=O)[C@H](CCCCN)NC(=O)[C@H](Cc4ccc(O)cc4)NC(=O)CNC(=O)[C@H](CCCCN)NC1=O)C(=O)N[C@@H](C)C(=O)N[C@@H](CCCCN)C(=O)NCC(=O)NCC(=O)N[C@@H](Cc1ccccc1)C(=O)N[C@@H](C(C)C)C(=O)N3)C(=O)N[C@@H](Cc1c[nH]cn1)C(=O)N[C@@H](CC(N)=O)C(=O)N[C@@H](Cc1c[nH]cn1)C(=O)N2 [Plectasin, plectasin]",Stiffness,Enterococcus faecalis,approximately 4 N/m
same,Stiffness,Enterococcus faecalis; SD,4.6 ± 1.9 N/m
same,Ra (mean roughness),"Enterococcus faecalis; AFM, untreated 10.0 ± 2.5, SD",19.4 ± 3.2 nm
same,Rq (root-mean-square roughness),"Enterococcus faecalis; AFM, untreated 12.2 ± 3.4, SD",23.5 ± 3.4 nm
same,Cell thickness,"Enterococcus faecalis; AFM, untreated 480.3 ± 30.6, SD",473.5 ± 47.5 nm
same,Stiffness,Listeria monocytogenes,approximately 4 N/m
same,Stiffness,Listeria monocytogenes; SD,3.5 ± 1.4 N/m
same,Ra (mean roughness),"Listeria monocytogenes; AFM, untreated 8.1 ± 2.5, SD",13.5 ± 2.4 nm
same,Rq (root-mean-square roughness),"Listeria monocytogenes; AFM, untreated 11.2 ± 3.4, SD",16.9 ± 2.8 nm
same,Cell thickness,"Listeria monocytogenes; AFM, untreated 297.0 ± 13.3, SD",297.8 ± 14.0 nm
same,Stiffness,Streptococcus pneumoniae,approximately 4 N/m
same,Stiffness,Streptococcus pneumoniae; SD,4.7 ± 1.1 N/m
same,Ra (mean roughness),"Streptococcus pneumoniae; AFM, untreated 15.5 ± 4.2, SD",19.7 ± 5.3 nm
same,Rq (root-mean-square roughness),"Streptococcus pneumoniae; AFM, untreated 18.8 ± 4.8, SD",24.5 ± 6.0 nm
same,Cell thickness,"Streptococcus pneumoniae; AFM, untreated 375.8 ± 28.4, SD",366.0 ± 54.1 nm
same,Stiffness,Staphylococcus aureus,approximately 4 N/m
same,Stiffness,Staphylococcus aureus; SD,3.7 ± 1.7 N/m
same,Ra (mean roughness),"Staphylococcus aureus; AFM, untreated 19.4 ± 3.5, SD",24.76 ± 6.7 nm
same,Rq (root-mean-square roughness),"Staphylococcus aureus; AFM, untreated 24.0 ± 4.4, SD",30.9 ± 8.0 nm
same,Cell thickness,"Staphylococcus aureus; AFM, untreated 485.9 ± 26.5, SD",467.2 ± 45.1 nm
same,highest achievable plectasin concentration after CASPON-tag cleavage,"[1]; any selected cleavage condition (temperature and CASPON enzyme ratio varied), without DTT, from 4 g/L CASPON-plectasin, preliminary experiments, Fig. S5",1.5 g/L
same,solubility of plectasin,"[1]; in the CASPON enzyme-based tag removal step (PBS pH 7.4, 37°C)",~ 1.6 g/L
same,highest achievable plectasin concentration after CASPON-tag cleavage,"[1]; with 1 mM DTT as supporting agent, Fig. S6",1.6 g/L
